Experimental data: patent publication US20180071354A1, “SELECTIVE BREEDING METHOD OF ANTITUMOR/ANTICANCER CAMELLIA SINENSIS STRAIN, AND TEA PRODUCT OF SUCH STRAIN” (FUJIAN AGRICULTURE AND FORESTRY UNIVERSITY, priority 2015, published 2018)

How the values were obtained:
[1] = tested on: human cervical cancer cell line Hela; assay: In vitro antitumor/anticancer testing (CCK-8), Hela; format: cell-based; conditions: 48 h
Procedure: (§1) Each of Tea Product 1 and Conventional Tea Product obtained in section A of this example was used to prepare test tea samples according to the method described below. A proper amount of the respective tea product was added into sterile water to prepare a stock solution with a concentration of 100 mg/mL, followed by using a membrane filter with a pore size of 0.22 μm to conduct vacuum filtration and sterilization. The resulting stock solution was diluted with a respective complete medium shown in Table 3 below to form test tea samples with different concentrations. In other words, the thus obtained test tea samples to be used for treating a respective cancer/tumor cell line shown in Table 3 were prepared using the same complete medium as that for the respective cancer/tumor cell line. […] Specifically, each of the aforesaid commercially available agents was subjected to the method described below to prepare comparative test samples. A proper amount of a respective commercially available agent was dissolved in phosphate-buffered saline (PBS) to prepare a stock solution with a concentration of 5 mg/mL, followed by using a membrane filter with a pore size of 0.22 μm to conduct vacuum filtration and sterilization. The resulting stock solution was diluted with a respective complete medium shown in Table 3 below to form comparative test samples with different concentrations. To be specific, the comparative test samples prepared from the respective commercially available agent have the concentrations shown in Table 2 below. The thus obtained comparative test samples to be used for treating a respective cancer/tumor cell line shown in Table 3 were prepared using the same complete medium as that for the respective cancer/tumor cell line. […] The cultivation of each cancer/tumor cell line is described as follows. […] Afterwards, a cell suspension having a cell density of 1.0×10^4 cells/mL was prepared. […] As experimental groups, the tumor/cancer cells of each cell line were treated with the test tea samples prepared from one or more of the tea products and the comparative test samples prepared from one or more of the commercially available agents as obtained in section B of this example (for more detailed information about the tea product(s) and the commercially available product (s) used to treat each cell line, please see Table 4 below). To be specific, 6 to 10 test tea samples prepared from the same tea product and having different concentrations, as well as 6 to 10 comparative test samples prepared from the same commercially available agent and having different concentrations, were utilized to treat the tumor/cancer cells of each cell line. For each experimental group, 6 repetitions of tumor/cancer treatment were performed. For the control group, 100 μL of PBS was added to a well containing the medium and the cancer/tumor cells of the respective cell line. For the blank group, 100 μL of PBS was added to a well containing a complete medium the same as that used for cultivation of the cancer/tumor cells of the respective cell line. After the treatment described above, cultivation was conducted in an incubator (37° C., 100% relative humidity, 5% CO2) for 48 hours. Subsequently, the liquid containing the medium and the sample in the well was removed, and a respective complete medium (shown in Table 3 above) containing 10% CCK-8 (Cell Counting Kit-8)(Dojindo Molecular Technologies, Inc., Cat. No. CK04-13) was added. Cultivation was performed in an incubator (37° C.) for 2 to 4 hours, followed by gently shaking.

[2] = tested on: human leukemia cell line HL-60; assay: In vitro antitumor/anticancer testing (CCK-8), HL-60; format: cell-based; conditions: 48 h
Procedure: as §1

O=C(O[C@@H]1Cc2c(O)cc(O)cc2O[C@@H]1c1cc(O)c(O)c(O)c1)c1cc(O)c(O)c(O)c1 [EGCG monomer, epigallocatechin gallate]
Percent growth inhibition ([1]; 0.3125 μg/mL): 4.13% | Percent growth inhibition ([1]; 0.625 μg/mL): −0.68% | Percent growth inhibition ([1]; 1.25 μg/mL): 1.08% | Percent growth inhibition ([1]; 2.5 μg/mL): −8.94% | Percent growth inhibition ([1]; 5 μg/mL): −6.50% | Percent growth inhibition ([1]; 10 μg/mL): −22.63% | Percent growth inhibition ([1]; 20 μg/mL): −20.22% | Percent growth inhibition ([1]; 40 μg/mL): −23.80% | Percent growth inhibition ([1]; 80 μg/mL): 36.66% | IC50 ([1]; Hela): IC50 (μg/mL) = 101.2 | Percent growth inhibition ([2]; 2.5 μg/mL): 5.10% | Percent growth inhibition ([2]; 5 μg/mL): 12.43% | Percent growth inhibition ([2]; 10 μg/mL): 16.22% | Percent growth inhibition ([2]; 20 μg/mL): 27.14% | Percent growth inhibition ([2]; 40 μg/mL): 44.21% | Percent growth inhibition ([2]; 80 μg/mL): 76.96% | Percent growth inhibition ([2]; 160 μg/mL): 73.03% | Percent growth inhibition ([2]; 320 μg/mL): 83.90% | Percent growth inhibition ([2]; 640 μg/mL): 91.13% | IC50 ([2]; HL-60): IC50 (μg/mL) = 44.96
